From article PMC6723059, “A Collection of Bioactive Nitrogen-Containing Molecules from the Marine Sponge Acanthostrongylophora ingens” (Marine Drugs, 2019) come the findings set out here.

Molecules are shown by their SMILES.

In this test the target is T1, cyclin-dependent kinase 2 (CDK2/cyclin A) (Homo sapiens, UniProt P24941).
T1 construct: with cyclin A
Kind of test: in vitro protein kinase activity assay, […] ATP. The test is classed as biochemical.

The IC50 is the concentration that gives 50% inhibition. The low end stands for inhibition by little substance, the high end for a need for much substance. In the case of `O=C1N[C@@H](Cc2ccccc2)C(=O)N2CCC[C@H]12` [compound 6, cyclo(D-Pro-L-Phe)], it took 1 µM to reach half-maximal inhibition (IC50).
